Reference: PMC8910920 (International Journal of Molecular Sciences, 2022)

What was measured:
hTRPV1 = target: T1, hTRPV1 (Homo sapiens, UniProt Q8NER1); experiment: hTRPV1 agonist assay (Ca2+ fluorimetry, CHO cells); assay type: cell-based; conditions: 10 μM
T1 construct: host or cells: CHO
Protocol: These studies were subcontracted to Eurofins-CEREP or Eurofins-PANLABS. Briefly, agonists and antagonist assays were performed in cell cultures overexpressing the corresponding channel (CHO: TRPV1 and TRPA1; HEK293: TRPV3 and ASIC3). In vitro pharmacology, cellular channel functional assays: the compound was prepared in assay buffer to the final concentration, 10 μM. The compound wells, reference agonist and background vehicle controls were prepared in DMSO at 0.3%. The reference agonist for each Ion Channel assayed was prepared in a similar manner to serve as the assay control. […] The agonist assay was conducted on fluorimeter instruments where the test compound, vehicle controls, and reference agonist were added to the assay plate after a fluorescence baseline was established. […] For the antagonist assay, the compound was pre-incubated for five minutes at room temperature, and then challenged with the EC80 concentration of the reference agonist after establishment of a fluorescence baseline. […] Binding assay results are expressed as a percent of control specific binding. […] Aqueous solubility (μM) was determined by comparing the peak area of the principal peak in a calibration standard (200 μM) containing organic solvent (methanol/water, 60/40, v/v) with the peak area of the corresponding peak in a buffer sample. […] The amount of compound in organic phase was calculated by subtraction. […]

[1] = tested on: voltage-activated Na+ and K+ currents; experiment: Whole-cell voltage-clamp, voltage-activated currents in rat DRG neurons; assay type: cell-based; conditions: 1 µM, depolarization pulse to +10 mV
Protocol: We also investigated the effect of RGM8-51 on native TRPM8 channels from rat DRG neurons. Whole-cell patch-clamp recordings from small size DRG neurons evidenced menthol (100 µM)-activated inward currents at a holding voltage of −80 mV (Figure 3A). As expected from results obtained in rTRPM8-expressing HEK293 cells, RGM8-51 (1 µM) inhibited menthol-activated currents.
Voltage-activated Na^+ and K^+ currents and TRPM8-mediated currents were recorded in DRG neurons isolated from 6-8 weeks old Sprague-Dawley rats, as previously described. Rats were sacrificed by cervical dislocation followed by decapitation and lumbar segments of the spinal column were removed and placed in a cold Ca^2+, Mg^2+-free Hank’s solution (Sigma-Aldrich, Madrid, Spain). The bone surrounding the spinal cord was removed and the right L4, L5 and L6 DRG were exposed and pulled out. […]
Data were sampled at 10 kHz (EPC10 amplifier with PatchMaster 2.53 software, HEKA Electronics, Lambrecht, Germany) and low-pass filtered at 3 kHz for analysis (PatchMaster 2.53 and GraphPad Prism 6.0, Graphpad Software, San Diego, CA, USA). […] Cell capacitance was measured and used to estimate the current density (J, pA/pF).

[2] = In vitro metabolism in human liver microsomes; assay type: in vitro ADME

T1 sequence (Q8NER1 whole entry): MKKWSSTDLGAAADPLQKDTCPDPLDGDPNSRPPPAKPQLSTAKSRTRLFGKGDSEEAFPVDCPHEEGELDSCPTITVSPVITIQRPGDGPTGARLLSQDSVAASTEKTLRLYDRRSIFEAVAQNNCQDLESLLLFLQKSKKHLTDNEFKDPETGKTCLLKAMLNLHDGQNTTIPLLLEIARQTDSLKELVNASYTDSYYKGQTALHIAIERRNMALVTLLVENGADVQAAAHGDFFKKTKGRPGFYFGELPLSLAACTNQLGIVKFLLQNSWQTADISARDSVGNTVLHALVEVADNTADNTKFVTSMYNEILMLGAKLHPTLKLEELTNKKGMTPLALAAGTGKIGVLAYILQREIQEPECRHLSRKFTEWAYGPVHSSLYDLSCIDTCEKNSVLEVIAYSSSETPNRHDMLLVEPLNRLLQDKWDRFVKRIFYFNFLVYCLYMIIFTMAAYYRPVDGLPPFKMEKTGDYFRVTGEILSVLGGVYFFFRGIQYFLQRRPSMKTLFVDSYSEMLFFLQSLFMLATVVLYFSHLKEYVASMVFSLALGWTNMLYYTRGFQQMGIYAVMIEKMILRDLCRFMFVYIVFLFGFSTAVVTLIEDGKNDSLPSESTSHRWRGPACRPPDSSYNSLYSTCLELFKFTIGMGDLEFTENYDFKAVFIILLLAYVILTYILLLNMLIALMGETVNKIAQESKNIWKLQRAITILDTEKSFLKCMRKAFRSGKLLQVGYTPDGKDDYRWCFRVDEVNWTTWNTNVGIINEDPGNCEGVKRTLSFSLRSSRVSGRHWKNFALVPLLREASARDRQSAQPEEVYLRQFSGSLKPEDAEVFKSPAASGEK

C[C@@H]1C(=O)N(C[C@H](Cc2ccccc2)N(Cc2ccccc2)Cc2ccccc2)[C@]1(Cc1ccccc1)C(=O)OC(C)(C)C [RGM8-51, 4(S)-Benzyl-3S-methyl-4-(tert-butoxy)carbonyl-1-[(2′S-dibenzylamino-3′-phenyl)prop-1′-yl]-2-oxoazetidine]
hTRPV1 ago. (%) (hTRPV1): 31.3 ± 3.6% | effect on voltage-activated Na+ and K+ currents [1]: had no effect | Metabolism Clint [2]: 614 µL/min/mg | Metabolism t1/2 [2]: 11 min | microsomal CLint ([2]; human, liver microsomes): 614 µL/min/mg | half-life ([2]; human, liver microsomes, read-out: Metabolism t1/2): 11.3 min
